“And” between values parts separate entries of the source, which are not always exact repeats. Equal values may be shown once. Results filed as inconclusive are left out.
System: CD8F1 mice, subcutaneous mammary adenocarcinoma, T/C%
Assay: NCI In Vivo Anticancer Drug Screen. Data for tumor model Mammary Adenocarcinoma CD8F1 (subcutaneous) in CD8F1
Conditions: higher = larger tumour
Outline: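 Transplantable tumors were established in mice, animals were dosed with compound or vehicle, and survival or tumor size was then measured in both groups. The treated result was divided by the control result.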

[1] = endpoint: median tumor weight (est.), dose: 25.0 mg/kg/injection, schedule: Q07DX005 (ip), vehicle: Klucel (hydroxypropylcellulose) (HPC)
[2] = endpoint: median tumor weight (est.), dose: 50.0 mg/kg/injection, schedule: Q07DX005 (ip), vehicle: Klucel (hydroxypropylcellulose) (HPC)
[3] = endpoint: median tumor weight (est.), dose: 100.0 mg/kg/injection, schedule: Q07DX005 (ip), vehicle: Klucel (hydroxypropylcellulose) (HPC)
[4] = endpoint: median tumor weight (est.), dose: 400.0 mg/kg/injection, schedule: Q07DX005 (ip), vehicle: Klucel (hydroxypropylcellulose) (HPC)
[5] = endpoint: median tumor weight (est.), dose: 12.5 mg/kg/injection, schedule: Q07DX005 (ip), vehicle: Klucel (hydroxypropylcellulose) (HPC)

## Cc1c2c(c(O)c3c(O)cccc13)C(=O)C1(O)C(O)=C(C(=O)NCNc3ccc(C(N)=O)cn3)C(=O)C(N(C)C)C1C2 (centres undefined)
endpoint: median tumor weight change, dose: 15.62 mg/kg/injection, schedule: Q01DX001 (ip), vehicle: saline
  T/C: 82 % of control
endpoint: median tumor weight change, dose: 31.25 mg/kg/injection, schedule: Q01DX001 (ip), vehicle: saline
  T/C: 70 % of control
endpoint: median tumor weight change, dose: 62.5 mg/kg/injection, schedule: Q01DX001 (ip), vehicle: saline
  T/C: 43 % of control
endpoint: median tumor weight change, dose: 125.0 mg/kg/injection, schedule: Q01DX001 (ip), vehicle: saline
  T/C: 34 % of control

## COC(=O)Nc1cccc(-c2nc3ccc(NC(=O)OC)cc3c(=O)n2-c2ccccc2)c1
endpoint: mean tumor weight, dose: 50.0 mg/kg/injection, schedule: Q07DX006 (ip), vehicle: saline
  T/C: 180 % of control
endpoint: mean tumor weight, dose: 100.0 mg/kg/injection, schedule: Q07DX006 (ip), vehicle: saline
  T/C: 167 % of control
endpoint: median tumor weight (est.), dose: 12.5 mg/kg/injection, schedule: Q04DX005 (ip), vehicle: saline
  T/C: 101 % of control
endpoint: median tumor weight (est.), dose: 12.5 mg/kg/injection, schedule: Q07DX004 (ip), vehicle: saline
  T/C: 79 % of control
endpoint: median tumor weight (est.), dose: 25.0 mg/kg/injection, schedule: Q07DX004 (ip), vehicle: saline
  T/C: 103 % of control
endpoint: median tumor weight (est.), dose: 50.0 mg/kg/injection, schedule: Q04DX005 (ip), vehicle: saline
  T/C: 109 % of control
endpoint: median tumor weight (est.), dose: 50.0 mg/kg/injection, schedule: Q07DX004 (ip), vehicle: saline
  T/C: 88 % of control
endpoint: median tumor weight (est.), dose: 200.0 mg/kg/injection, schedule: Q04DX005 (ip), vehicle: saline
  T/C: 88 % of control
endpoint: median tumor weight (est.), dose: 200.0 mg/kg/injection, schedule: Q07DX004 (ip), vehicle: saline
  T/C: 113 % of control
endpoint: median tumor weight (est.), dose: 400.0 mg/kg/injection, schedule: Q07DX004 (ip), vehicle: saline
  T/C: 101 % of control

## O=c1ssc(=Nc2ccccc2)n1-c1ccccc1
[1]
  T/C: 119 % of control
[2]
  T/C: 90 % of control
[3]
  T/C: 70 % of control
endpoint: median tumor weight (est.), dose: 200.0 mg/kg/injection, schedule: Q07DX005 (ip), vehicle: Klucel (hydroxypropylcellulose) (HPC)
  T/C: 65 % of control
[4]
  T/C: 69 % of control

## CC(C)NC(=O)N(CCCCBr)N=O
endpoint: median tumor weight change, dose: 49.37 mg/kg/injection, schedule: Q01DX001 (ip), vehicle: Klucel (hydroxypropylcellulose) (HPC)
  T/C: 43 % of control
endpoint: median tumor weight change, dose: 62.0 mg/kg/injection, schedule: Q01DX001 (ip), vehicle: Klucel (hydroxypropylcellulose) (HPC)
  T/C: 42 % of control
endpoint: median tumor weight change, dose: 98.75 mg/kg/injection, schedule: Q01DX001 (ip), vehicle: Klucel (hydroxypropylcellulose) (HPC)
  T/C: 34 % of control
endpoint: median tumor weight change, dose: 197.5 mg/kg/injection, schedule: Q01DX001 (ip), vehicle: Klucel (hydroxypropylcellulose) (HPC)
  T/C: -13 % of control
endpoint: median tumor weight change, dose: 395.0 mg/kg/injection, schedule: Q01DX001 (ip), vehicle: Klucel (hydroxypropylcellulose) (HPC)
  T/C: -66 % of control
endpoint: median tumor weight change, dose: 500.0 mg/kg/injection, schedule: Q01DX001 (ip), vehicle: Klucel (hydroxypropylcellulose) (HPC)
  T/C: -41 % of control

## CNC(=O)OCc1c(COC(=O)NC)c(-c2ccc(F)cc2)n2c1CCC2
endpoint: median tumor weight (est.), dose: 3.12 mg/kg/injection, schedule: Q07DX005 (ip), vehicle: Klucel (hydroxypropylcellulose) (HPC)
  T/C: 49 % of control
endpoint: median tumor weight (est.), dose: 6.25 mg/kg/injection, schedule: Q07DX005 (ip), vehicle: Klucel (hydroxypropylcellulose) (HPC)
  T/C: 63 % of control
[5]
  T/C: 84 % of control
[1]
  T/C: 48 % of control
[2]
  T/C: 39 % of control

## Cn1c2ccccc2c2ccc3c(c21)C(=O)C=CC3=O
endpoint: median tumor weight change, dose: 62.5 mg/kg/injection, schedule: Q01DX001 (ip), vehicle: saline with Tween-80
  T/C: 38 % of control

## C[n+]1ccc2cc(N)c3c4ccccc4sc3c2c1
endpoint: median tumor weight (est.), dose: 1.56 mg/kg/injection, schedule: Q07DX004 (ip), vehicle: saline with Tween-80
  T/C: 83 % of control
endpoint: median tumor weight (est.), dose: 3.12 mg/kg/injection, schedule: Q07DX004 (ip), vehicle: saline with Tween-80
  T/C: 121 % of control
endpoint: median tumor weight (est.), dose: 6.25 mg/kg/injection, schedule: Q07DX004 (ip), vehicle: saline with Tween-80
  T/C: 65 % of control
endpoint: median tumor weight (est.), dose: 12.5 mg/kg/injection, schedule: Q07DX004 (ip), vehicle: saline with Tween-80
  T/C: 105 % of control
endpoint: median tumor weight (est.), dose: 25.0 mg/kg/injection, schedule: Q07DX004 (ip), vehicle: saline with Tween-80
  T/C: 110 % of control

## CCOC(=O)CNC(=O)CCCCSc1ncnc2nc[nH]c12
endpoint: mean tumor weight, dose: 20.0 mg/kg/injection, schedule: Q07DX005 (ip), vehicle: saline
  T/C: 121 % of control
endpoint: mean tumor weight, dose: 40.0 mg/kg/injection, schedule: Q07DX005 (ip), vehicle: saline
  T/C: 84 % of control
endpoint: mean tumor weight, dose: 80.0 mg/kg/injection, schedule: Q07DX005 (ip), vehicle: saline
  T/C: 48 % of control
endpoint: mean tumor weight, dose: 160.0 mg/kg/injection, schedule: Q07DX005 (ip), vehicle: saline
  T/C: 39 % of control
endpoint: mean tumor weight, dose: 320.0 mg/kg/injection, schedule: Q07DX005 (ip), vehicle: saline
  T/C: 67 % of control
endpoint: mean tumor weight, dose: 640.0 mg/kg/injection, schedule: Q07DX005 (ip), vehicle: saline
  T/C: 45 % of control
endpoint: median tumor weight (est.), dose: 20.0 mg/kg/injection, schedule: Q07DX004 (ip), vehicle: saline
  T/C: 78 % of control
endpoint: median tumor weight (est.), dose: 40.0 mg/kg/injection, schedule: Q07DX004 (ip), vehicle: saline
  T/C: 63 % of control
endpoint: median tumor weight (est.), dose: 80.0 mg/kg/injection, schedule: Q07DX004 (ip), vehicle: saline
  T/C: 40 % of control
endpoint: median tumor weight (est.), dose: 160.0 mg/kg/injection, schedule: Q07DX004 (ip), vehicle: saline
  T/C: 97 % of control
endpoint: median tumor weight (est.), dose: 320.0 mg/kg/injection, schedule: Q07DX004 (ip), vehicle: saline
  T/C: 109 % of control

## COc1cccc2c1C(=O)c1c(O)c3c(c(O)c1C2=O)C[C@@](O)(C(=O)COC(=O)c1cccnc1)C[C@@H]3OC1CC(N)C(O)C(C)O1 (some centres undefined)
endpoint: mean tumor weight, dose: 0.5 mg/kg/injection, schedule: Q07DX006 (ip), vehicle: saline
  T/C: 114 % of control
endpoint: mean tumor weight, dose: 1.0 mg/kg/injection, schedule: Q07DX006 (ip), vehicle: saline
  T/C: 53 % of control
endpoint: mean tumor weight, dose: 2.0 mg/kg/injection, schedule: Q07DX006 (ip), vehicle: saline
  T/C: 25 % of control
endpoint: median tumor weight (est.), dose: 0.5 mg/kg/injection, schedule: Q07DX005 (ip), vehicle: saline
  T/C: 121 % of control
endpoint: median tumor weight (est.), dose: 1.0 mg/kg/injection, schedule: Q07DX005 (ip), vehicle: saline
  T/C: 92 % of control
endpoint: median tumor weight (est.), dose: 2.0 mg/kg/injection, schedule: Q07DX005 (ip), vehicle: saline
  T/C: 72 % of control and 75 % of control
endpoint: median tumor weight (est.), dose: 4.0 mg/kg/injection, schedule: Q07DX005 (ip), vehicle: saline
  T/C: 90 % of control

## CC(C)CC(NC(=O)CF)C(=O)O (centres undefined)
endpoint: median tumor weight (est.), dose: 0.62 mg/kg/injection, schedule: Q07DX005 (ip), vehicle: saline
  T/C: 81 % of control
endpoint: median tumor weight (est.), dose: 2.5 mg/kg/injection, schedule: Q07DX005 (ip), vehicle: saline
  T/C: 39 % of control
endpoint: median tumor weight (est.), dose: 5.0 mg/kg/injection, schedule: Q07DX005 (ip), vehicle: saline
  T/C: 99 % of control
endpoint: median tumor weight (est.), dose: 10.0 mg/kg/injection, schedule: Q07DX005 (ip), vehicle: saline
  T/C: 41 % of control

## O=C(Nc1nncs1)c1ccncc1
endpoint: median tumor weight (est.), dose: 25.0 mg/kg/injection, schedule: Q07DX005 (ip), vehicle: saline with Tween-80
  T/C: 151 % of control
endpoint: median tumor weight (est.), dose: 800.0 mg/kg/injection, schedule: Q07DX005 (ip), vehicle: saline with Tween-80
  T/C: 69 % of control

## Nc1ccccc1N
[5]
  T/C: 117 % of control
[1]
  T/C: 155 % of control
[3]
  T/C: 122 % of control
[4]
  T/C: 35 % of control

## CC12CCC3C(CCC4CC(OC(=O)Cc5ccc(N(CCCl)CCCl)cc5)CCC43C)C1CCC(=O)N2 (centres undefined)
endpoint: median tumor weight (est.), dose: 0.75 mg/kg/injection, schedule: Q07DX005 (ip), vehicle: saline with Tween-80
  T/C: 63 % of control
endpoint: median tumor weight (est.), dose: 1.5 mg/kg/injection, schedule: Q07DX005 (ip), vehicle: saline with Tween-80
  T/C: 109 % of control
endpoint: median tumor weight (est.), dose: 3.0 mg/kg/injection, schedule: Q07DX005 (ip), vehicle: Klucel (hydroxypropylcellulose) (HPC)
  T/C: 91 % of control
endpoint: median tumor weight (est.), dose: 3.0 mg/kg/injection, schedule: Q07DX005 (ip), vehicle: saline with Tween-80
  T/C: 99 % of control
endpoint: median tumor weight (est.), dose: 6.0 mg/kg/injection, schedule: Q07DX005 (ip), vehicle: Klucel (hydroxypropylcellulose) (HPC)
  T/C: 41 % of control
endpoint: median tumor weight (est.), dose: 6.0 mg/kg/injection, schedule: Q07DX005 (ip), vehicle: saline with Tween-80
  T/C: 55 % of control
endpoint: median tumor weight (est.), dose: 12.0 mg/kg/injection, schedule: Q07DX005 (ip), vehicle: Klucel (hydroxypropylcellulose) (HPC)
  T/C: 30 % of control
endpoint: median tumor weight (est.), dose: 12.0 mg/kg/injection, schedule: Q07DX005 (ip), vehicle: saline with Tween-80
  T/C: 12 % of control
endpoint: median tumor weight (est.), dose: 24.0 mg/kg/injection, schedule: Q07DX005 (ip), vehicle: Klucel (hydroxypropylcellulose) (HPC)
  T/C: 8 % of control
endpoint: median tumor weight (est.), dose: 24.0 mg/kg/injection, schedule: Q07DX005 (ip), vehicle: saline with Tween-80
  T/C: 1 % of control
